Laboratory results: PubChem BioAssay AID248 (DTP/NCI, 2004)
Where “and” joins values, the source holds several entries; their conditions need not be identical. Equal entries are not always repeated. Toxic doses and inconclusive results are not listed.

Tested on: L1210 leukemia ip in BDF1 mice, survival T/C
Test: NCI In Vivo Anticancer Drug Screen. Data for tumor model L1210 Leukemia (intraperitoneal) in B6D2F1 (BDF1) mice
Conditions: endpoint: mean survival time, higher = longer survival
How it was run: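 Tumor was transplanted into mice, which were then dosed with test compound or vehicle alone. Survival was recorded for each group, and the treated figure was expressed relative to the control figure.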

[1] = dose: 5.0 mg/kg/injection, schedule: Q01DX001 (ip), vehicle: carboxymethylcellulose (CMC)
[2] = dose: 20.0 mg/kg/injection, schedule: Q01DX001 (ip), vehicle: carboxymethylcellulose (CMC)
[3] = dose: 50.0 mg/kg/injection, schedule: Q01DX009 (ip), vehicle: Klucel (hydroxypropylcellulose) (HPC)
[4] = dose: 100.0 mg/kg/injection, schedule: Q04DX003 (ip), vehicle: Klucel (hydroxypropylcellulose) (HPC)
[5] = dose: 200.0 mg/kg/injection, schedule: Q04DX003 (ip), vehicle: Klucel (hydroxypropylcellulose) (HPC)
[6] = dose: 400.0 mg/kg/injection, schedule: Q04DX003 (ip), vehicle: Klucel (hydroxypropylcellulose) (HPC)
[7] = dose: 100.0 mg/kg/injection, schedule: Q01DX001 (ip), vehicle: saline
[8] = dose: 200.0 mg/kg/injection, schedule: Q01DX001 (ip), vehicle: saline
[9] = dose: 400.0 mg/kg/injection, schedule: Q01DX001 (ip), vehicle: saline
[10] = dose: 100.0 mg/kg/injection, schedule: Q01DX009 (ip), vehicle: Klucel (hydroxypropylcellulose) (HPC)
[11] = dose: 100.0 mg/kg/injection, schedule: Q01DX009 (ip), vehicle: saline with Tween-80

CNC(=S)N/N=C(/C)CCc1c(C)nn(C(=S)NC)c1C
T/C [1]: 94 % of control
T/C (dose: 10.0 mg/kg/injection, schedule: Q01DX001 (ip), vehicle: carboxymethylcellulose (CMC)): 91 % of control
T/C (dose: 12.5 mg/kg/injection, schedule: Q01DX009 (ip), vehicle: Klucel (hydroxypropylcellulose) (HPC)): 103 % of control
T/C [2]: 89 % of control
T/C (dose: 25.0 mg/kg/injection, schedule: Q01DX009 (ip), vehicle: Klucel (hydroxypropylcellulose) (HPC)): 100 % of control
T/C (dose: 25.0 mg/kg/injection, schedule: Q04DX003 (ip), vehicle: Klucel (hydroxypropylcellulose) (HPC)): 106 % of control
T/C (dose: 40.0 mg/kg/injection, schedule: Q01DX001 (ip), vehicle: carboxymethylcellulose (CMC)): 89 % of control
T/C [3]: 92 % of control
T/C (dose: 50.0 mg/kg/injection, schedule: Q04DX003 (ip), vehicle: Klucel (hydroxypropylcellulose) (HPC)): 100 % of control
T/C (dose: 80.0 mg/kg/injection, schedule: Q01DX001 (ip), vehicle: carboxymethylcellulose (CMC)): 96 % of control
T/C [4]: 92 % of control

O=C(O)c1sccc1-c1cccc2ccccc12
T/C (dose: 50.0 mg/kg/injection, schedule: Q01DX001 (ip), vehicle: Klucel (hydroxypropylcellulose) (HPC)): 94 % of control
T/C (dose: 100.0 mg/kg/injection, schedule: Q01DX001 (ip), vehicle: Klucel (hydroxypropylcellulose) (HPC)): 96 % of control
T/C (dose: 200.0 mg/kg/injection, schedule: Q01DX001 (ip), vehicle: Klucel (hydroxypropylcellulose) (HPC)): 94 % of control

O=[N+]([O-])c1ccc2c3c(ccc(Br)c13)CC2
T/C (dose: 100.0 mg/kg/injection, schedule: Q01DX009 (ip), vehicle: saline sonified): 103 % of control
T/C [4]: 106 % of control
T/C (dose: 200.0 mg/kg/injection, schedule: Q01DX009 (ip), vehicle: saline sonified): 103 % of control
T/C [5]: 98 % of control
T/C (dose: 400.0 mg/kg/injection, schedule: Q01DX009 (ip), vehicle: saline sonified): 100 % of control
T/C [6]: 92 % of control

CC1CCCCN1C(=O)CCCCl (configuration not stated)
T/C (dose: 100.0 mg/kg/injection, schedule: Q04DX002 (ip), vehicle: saline): 111 % of control
T/C (dose: 200.0 mg/kg/injection, schedule: Q04DX002 (ip), vehicle: saline): 101 % of control
T/C (dose: 400.0 mg/kg/injection, schedule: Q04DX002 (ip), vehicle: saline): 88 % of control

N#Cc1ccccc1CC(=O)c1ccccc1
T/C (dose: 50.0 mg/kg/injection, schedule: Q01DX001 (ip), vehicle: saline): 101 % of control
T/C [7]: 97 % of control
T/C [8]: 93 % of control
T/C [9]: 100 % of control

O=CNc1ccccc1.[Hg]
T/C (dose: 1.56 mg/kg/injection, schedule: Q04DX003 (ip), vehicle: saline with Tween-80): 93 % of control
T/C (dose: 3.13 mg/kg/injection, schedule: Q04DX003 (ip), vehicle: saline with Tween-80): 92 % of control
T/C (dose: 6.25 mg/kg/injection, schedule: Q04DX003 (ip), vehicle: saline with Tween-80): 95 % of control and 112 % of control

CC(=O)CC(=O)Nc1ccc(NC(C)=O)cc1
T/C [7]: 96 % of control
T/C [8]: 100 % of control
T/C [9]: 105 % of control

CCCCCCCCOc1ccc(C=Nc2ccc(CC)cc2)cc1
T/C [10]: 97 % of control
T/C (dose: 200.0 mg/kg/injection, schedule: Q01DX009 (ip), vehicle: Klucel (hydroxypropylcellulose) (HPC)): 86 % of control
T/C (dose: 400.0 mg/kg/injection, schedule: Q01DX009 (ip), vehicle: Klucel (hydroxypropylcellulose) (HPC)): 91 % of control

CO/C=C1\Cc2cc(OC)c(OC)cc2C1=O
T/C [11]: 102 % of control
T/C (dose: 200.0 mg/kg/injection, schedule: Q01DX009 (ip), vehicle: saline with Tween-80): 104 % of control
T/C (dose: 400.0 mg/kg/injection, schedule: Q01DX009 (ip), vehicle: saline with Tween-80): 94 % of control

O=C(Cc1cccc2ccccc12)OCCBr
T/C (dose: 222.0 mg/kg/injection, schedule: Q01DX Z (ip), vehicle: methylcellulose (MC)): 100 % of control
T/C (dose: 333.0 mg/kg/injection, schedule: Q01DX Z (ip), vehicle: methylcellulose (MC)): 100 % of control
T/C (dose: 500.0 mg/kg/injection, schedule: Q01DX Z (ip), vehicle: methylcellulose (MC)): 96 % of control

Cc1c2ccc(=O)cc-2oc2cc(O)ccc12
T/C [4]: 92 % of control
T/C [5]: 94 % of control
T/C [6]: 87 % of control

CCOC(=O)C12CCC(C1=O)C(C)(O)CC2 (configuration not stated)
T/C (dose: 100.0 mg/kg/injection, schedule: Q04DX003 (ip), vehicle: saline with Tween-80): 108 % of control
T/C (dose: 200.0 mg/kg/injection, schedule: Q04DX003 (ip), vehicle: saline with Tween-80): 97 % of control

CCC(=O)NC
T/C (dose: 100.0 mg/kg/injection, schedule: Q01DX001 (ip), vehicle: acetone): 100 % of control
T/C (dose: 100.0 mg/kg/injection, schedule: Q01DX009 (ip), vehicle: acetone): 101 % of control
T/C (dose: 200.0 mg/kg/injection, schedule: Q01DX001 (ip), vehicle: acetone): 100 % of control
T/C (dose: 200.0 mg/kg/injection, schedule: Q01DX009 (ip), vehicle: acetone): 97 % of control
T/C (dose: 400.0 mg/kg/injection, schedule: Q01DX001 (ip), vehicle: acetone): 100 % of control
T/C (dose: 400.0 mg/kg/injection, schedule: Q01DX009 (ip), vehicle: acetone): 100 % of control
T/C (dose: 555.0 mg/kg/injection, schedule: Q01DX015 (ip), vehicle: water): 102 % of control
T/C (dose: 833.0 mg/kg/injection, schedule: Q01DX015 (ip), vehicle: water): 115 % of control
T/C (dose: 1000.0 mg/kg/injection, schedule: Q01DX001 (ip), vehicle: water): 98 % of control
T/C (dose: 1500.0 mg/kg/injection, schedule: Q01DX001 (ip), vehicle: water): 104 % of control
T/C (dose: 2000.0 mg/kg/injection, schedule: Q01DX001 (ip), vehicle: water): 113 % of control

C#CC(C)(O)CC(C)C (configuration not stated)
T/C [7]: 100 % of control
T/C [8]: 100 % of control

O=C(CSC1=NCCN1)c1ccccc1
T/C [11]: 101 % of control

Cc1nc(N)[nH]c(=O)c1CCCNc1ccc(/C=C/C(=O)CCl)cc1
T/C (dose: 50.0 mg/kg/injection, schedule: Q01DX Z (ip), vehicle: carboxymethylcellulose (CMC)): 90 % of control
T/C (dose: 100.0 mg/kg/injection, schedule: Q01DX Z (ip), vehicle: carboxymethylcellulose (CMC)): 86 % of control
T/C (dose: 200.0 mg/kg/injection, schedule: Q01DX Z (ip), vehicle: carboxymethylcellulose (CMC)): 90 % of control
T/C (dose: 400.0 mg/kg/injection, schedule: Q01DX Z (ip), vehicle: carboxymethylcellulose (CMC)): 90 % of control

CC(C)=CC(=O)NC(=O)NS(=O)(=O)c1ccc(C)cc1
T/C [3]: 91 % of control
T/C [10]: 95 % of control
T/C [4]: 115 % of control
T/C [5]: 104 % of control

COc1cc(N(CCCl)CCCl)ccc1C=Nc1ccccc1C(=O)O
T/C (dose: 2.3 mg/kg/injection, schedule: Q01DX015 (ip), vehicle: carboxymethylcellulose (CMC)): 117 % of control
T/C [1]: 121 % of control
T/C (dose: 5.3 mg/kg/injection, schedule: Q01DX015 (ip), vehicle: carboxymethylcellulose (CMC)): 122 % of control
T/C (dose: 10.0 mg/kg/injection, schedule: Q01DX015 (ip), vehicle: carboxymethylcellulose (CMC)): 154 % of control
T/C (dose: 15.0 mg/kg/injection, schedule: Q01DX015 (ip), vehicle: carboxymethylcellulose (CMC)): 119 % of control
T/C (dose: 16.0 mg/kg/injection, schedule: Q01DX015 (ip), vehicle: carboxymethylcellulose (CMC)): 123 % of control
T/C [2]: 162 % of control
T/C (dose: 22.0 mg/kg/injection, schedule: Q01DX001 (ip), vehicle: carboxymethylcellulose (CMC)): 150 % of control
T/C (dose: 33.0 mg/kg/injection, schedule: Q01DX001 (ip), vehicle: carboxymethylcellulose (CMC)): 164 % of control
T/C (dose: 50.0 mg/kg/injection, schedule: Q01DX001 (ip), vehicle: carboxymethylcellulose (CMC)): 100 % of control

COc1ccc(C(C(C)=O)N2CCN(c3ccccc3)CC2)cc1 (configuration not stated)
T/C (dose: 100.0 mg/kg/injection, schedule: Q04DX003 (ip), vehicle: other): 98 % of control
T/C (dose: 200.0 mg/kg/injection, schedule: Q04DX003 (ip), vehicle: other): 95 % of control

O=c1cc(-c2ccccc2)sc(-c2ccccc2)c1
T/C (dose: 75.0 mg/kg/injection, schedule: Q04DX003 (ip), vehicle: saline): 100 % of control
T/C [4]: 103 % of control
T/C (dose: 150.0 mg/kg/injection, schedule: Q04DX003 (ip), vehicle: saline): 95 % of control
T/C [5]: 105 % of control
T/C (dose: 300.0 mg/kg/injection, schedule: Q04DX003 (ip), vehicle: saline): 92 % of control
T/C [6]: 103 % of control
